According to article PMC12669672, “Structural insights into selective and dual antagonism of EP2 and EP4 prostaglandin receptors” (The EMBO Journal, 2025):
Values joined by “and” are separate entries in the source; they are usually repeats but may differ in a detail not shown here. Equal values may be shown once. “Also recorded” adds a separate entry of the source. Read-outs that look alike come from different tables or passages of the source.

Legend:
Assay type in all cases: cell-based
[1] = target: T1, EP4 WT (Homo sapiens, UniProt P35408); experiment: GloSensor cAMP assay, antagonism of PGE2-induced cAMP; conditions: for remaining activity at 10 µM / remaining activity at 1 µM / remaining activity at 0.1 µM / remaining activity at 0.01 µM / remaining activity at 0.001 µM / remaining activity at 0.0001 µM / remaining activity at 10 pM / remaining activity at 1 pM: 1 h; for remaining activity at 0.1 µM: Grapiprant log([M]) -7
T1 construct: The full-length EP2 or EP4 was cloned into the pcDNA3.1 vector; FLAG (N); expressed in transfected cells; host or cells: AD293 cells
T1 sequence (P35408 whole entry): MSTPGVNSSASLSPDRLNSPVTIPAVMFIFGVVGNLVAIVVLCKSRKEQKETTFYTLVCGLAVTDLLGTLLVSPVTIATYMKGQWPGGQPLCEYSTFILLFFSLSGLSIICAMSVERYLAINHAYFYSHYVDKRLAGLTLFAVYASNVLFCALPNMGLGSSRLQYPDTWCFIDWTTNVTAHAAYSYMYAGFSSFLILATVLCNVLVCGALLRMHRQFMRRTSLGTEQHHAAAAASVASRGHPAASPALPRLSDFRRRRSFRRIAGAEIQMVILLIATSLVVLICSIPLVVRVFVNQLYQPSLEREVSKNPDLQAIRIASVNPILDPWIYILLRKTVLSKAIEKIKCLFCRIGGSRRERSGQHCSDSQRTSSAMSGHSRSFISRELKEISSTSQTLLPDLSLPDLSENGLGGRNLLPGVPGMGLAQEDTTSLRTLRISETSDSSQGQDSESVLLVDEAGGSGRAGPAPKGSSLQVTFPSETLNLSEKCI
Description: (§1) The full-length EP2 or EP4 was cloned into the pcDNA3.1 vector (Invitrogen), incorporating an N-terminal FLAG tag. AD293 cells were seeded in six-well plates containing DMEM supplemented with 10% dialyzed FBS 1 day prior to transfection. Following overnight growth, cells were transfected with a 1:1 ratio of receptor construct and GloSensor22F cAMP biosensor (Promega) plasmids.
(§2) Twenty-four hours post-transfection, the cells were transferred to CO2-independent media containing 2% GloSensor cAMP Reagent (Promega) and distributed into 384-well assay plates at a density of 4000 cells per well in 10 μL. […] The plates were then incubated at 37 °C for an additional hour before luminescence measurements were taken using an EnVision plate reader.
(§3) Data analysis was performed using GraphPad Prism software v8.0.1. A nonlinear regression analysis, employing a sigmoidal dose–response model, was conducted to determine the Emax values and half-maximum inhibitory concentrations (IC50) for each compound tested.

[2] = target: T2, constitutively active EP4 S319A (Homo sapiens, UniProt P35408, S319A); experiment: GloSensor cAMP assay, inhibition of constitutive activity; conditions: for ΔpIC50: no PGE2, pIC50 mutant - pIC50 WT, mean
T2 construct: The full-length EP2 or EP4 was cloned into the pcDNA3.1 vector (Invitrogen), incorporating an N-terminal FLAG tag; expressed in transfected cells; host or cells: AD293
T2 sequence (P35408 whole entry S319A): as the sequence (P35408 whole entry) above, with S319A counted along it
Description: as §1, §2, §3

[3] = target: T3, constitutively active EP4 V72A (Homo sapiens, UniProt P35408, V72A); experiment: as above; conditions: for ΔpIC50: no PGE2, pIC50 mutant - pIC50 WT, mean
T3 construct: The full-length EP2 or EP4 was cloned into the pcDNA3.1 vector (Invitrogen), incorporating an N-terminal FLAG tag; expressed in transfected cells; host or cells: AD293
T3 sequence (P35408 whole entry V72A): as the sequence (P35408 whole entry) above, with V72A counted along it
Description: as §1, §2, §3

[4] = target: T4, constitutively active EP4 WT (Homo sapiens, UniProt P35408); experiment: as above
T4 construct: The full-length EP2 or EP4 was cloned into the pcDNA3.1 vector (Invitrogen), incorporating an N-terminal FLAG tag; expressed in transfected cells; host or cells: AD293
T4 sequence (P35408 whole entry): as the sequence (P35408 whole entry) above
Description: as §1, §2, §3

[5] = target: EP2 WT (Homo sapiens, UniProt P43116); experiment: GloSensor cAMP assay, antagonism of PGE2-induced cAMP; design: The full-length EP2 or EP4 was cloned into the pcDNA3.1 vector; FLAG (N); expressed in transfected cells; host or cells: AD293 cells; conditions: 1 h, single experiments 1st-3rd, Fig. S1A
Chain of EP2 WT (P43116 whole entry): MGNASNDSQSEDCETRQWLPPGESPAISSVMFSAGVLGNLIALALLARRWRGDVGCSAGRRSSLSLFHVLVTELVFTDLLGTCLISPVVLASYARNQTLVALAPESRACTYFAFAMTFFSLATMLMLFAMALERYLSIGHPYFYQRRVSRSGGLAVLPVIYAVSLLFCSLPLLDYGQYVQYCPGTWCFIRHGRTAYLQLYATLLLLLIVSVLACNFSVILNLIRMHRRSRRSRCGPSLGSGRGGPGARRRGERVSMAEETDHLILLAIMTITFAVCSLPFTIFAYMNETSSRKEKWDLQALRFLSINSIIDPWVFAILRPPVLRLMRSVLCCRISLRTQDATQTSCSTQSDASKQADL
Description: as §1, §2, §3

IC50 [1]: 35.5 nM
remaining activity at 10 µM ([1]; Grapiprant log([M]) -5, read-out: % cAMP activity (normalized to WT)): 2.75%
remaining activity at 1 µM ([1]; Grapiprant log([M]) -6, read-out: % cAMP activity (normalized to WT)): 3.71%
remaining activity at 0.1 µM ([1]; read-out: % cAMP activity (normalized to WT)): 21%
remaining activity at 0.1 µM ([1]; single experiments 1st-3rd, Fig. S7C, read-out: % cAMP activity (normalized to WT)): 30.1%
remaining activity at 0.01 µM ([1]; Grapiprant log([M]) -8, read-out: % cAMP activity (normalized to WT)): 83.1%
remaining activity at 0.01 µM ([1]; Grapiprant log([M]) -8, single experiments 1st-3rd, Fig. S7C, read-out: % cAMP activity (normalized to WT)): 88.1%
remaining activity at 0.001 µM ([1]; Grapiprant log([M]) -9, read-out: % cAMP activity (normalized to WT)): 96.3%
remaining activity at 0.0001 µM ([1]; Grapiprant log([M]) -10, read-out: % cAMP activity (normalized to WT)): 90.2%
remaining activity at 0.0001 µM ([1]; Grapiprant log([M]) -10, single experiments 1st-3rd, Fig. S7C, read-out: % cAMP activity (normalized to WT)): 96.7%
remaining activity at 10 pM ([1]; Grapiprant log([M]) -11, read-out: % cAMP activity (normalized to WT)): 97.9%
remaining activity at 10 pM ([1]; Grapiprant log([M]) -11, single experiments 1st-3rd, Fig. S7C, read-out: % cAMP activity (normalized to WT)): 101%
remaining activity at 1 pM ([1]; Grapiprant log([M]) -12, read-out: % cAMP activity (normalized to WT)): 103%
remaining activity at 1 pM ([1]; Grapiprant log([M]) -12, single experiments 1st-3rd, Fig. S7C, read-out: % cAMP activity (normalized to WT)): 93.3%
remaining activity at 10 µM ([1]; read-out: % cAMP activity EP4 (normalized to Grapiprant), ligand log([M]) -5, single experiments 1st-3rd, Fig. S1A): 2.69%
remaining activity at 1 µM ([1]; read-out: % cAMP activity EP4 (normalized to Grapiprant), ligand log([M]) -6, single experiments 1st-3rd, Fig. S1A): 5.1%
remaining activity at 0.01 µM ([1]; read-out: % cAMP activity EP4 (normalized to Grapiprant), ligand log([M]) -8, single experiments 1st-3rd, Fig. S1A): 94.2%
remaining activity at 0.001 µM ([1]; read-out: % cAMP activity EP4 (normalized to Grapiprant), ligand log([M]) -9, single experiments 1st-3rd, Fig. S1A): 97%
remaining activity at 0.0001 µM ([1]; read-out: % cAMP activity EP4 (normalized to Grapiprant), ligand log([M]) -10, single experiments 1st-3rd, Fig. S1A): 100%
remaining activity at 10 pM ([1]; read-out: % cAMP activity EP4 (normalized to Grapiprant), ligand log([M]) -11, single experiments 1st-3rd, Fig. S1A): 93.5%
remaining activity at 1 pM ([1]; read-out: % cAMP activity EP4 (normalized to Grapiprant), ligand log([M]) -12, single experiments 1st-3rd, Fig. S1A): 102%
cAMP activity (∆pIC50 from EP4 WT) ([1]; Grapiprant, WT, single experiments 1st-3rd): 0.1372 and 0.1162 and -0.1508
IC50 [2]: 16.6 nM
remaining activity at 0.1 µM ([2]; 1 h, Grapiprant log([M]) -7.00, EP4-S319A, read-out: % cAMP activity (normalized to WT)): 23.1%
remaining activity at 0.01 µM ([2]; 1 h, Grapiprant log([M]) -8.00, EP4-S319A, read-out: % cAMP activity (normalized to WT)): 84.7%
remaining activity at 0.001 µM ([2]; 1 h, Grapiprant log([M]) -9.00, EP4-S319A, read-out: % cAMP activity (normalized to WT)): 130%
remaining activity at 1 pM ([2]; 1 h, Grapiprant log([M]) -12.00, EP4-S319A, read-out: % cAMP activity (normalized to WT)): 118%
Grapiprant cAMP activity (∆pIC50 from EP4 WT), Mean ([2]; S319A, Mean): -0.598
ΔpIC50 [2]: -0.60 ± 0.09
ΔpIC50 ([2]; listed as grapiprant): reduced the potency
IC50 [3]: 18.6 nM
remaining activity at 0.1 µM ([3]; 1 h, Grapiprant log([M]) -7.00, EP4-V72A, read-out: % cAMP activity (normalized to WT)): 8.15%
remaining activity at 0.01 µM ([3]; 1 h, Grapiprant log([M]) -8.00, EP4-V72A, read-out: % cAMP activity (normalized to WT)): 28%
remaining activity at 0.001 µM ([3]; 1 h, Grapiprant log([M]) -9.00, EP4-V72A, read-out: % cAMP activity (normalized to WT)): 48.8%
remaining activity at 0.0001 µM ([3]; 1 h, Grapiprant log([M]) -10.00, EP4-V72A, read-out: % cAMP activity (normalized to WT)): 35.6%
remaining activity at 10 pM ([3]; 1 h, Grapiprant log([M]) -11.00, EP4-V72A, read-out: % cAMP activity (normalized to WT)): 41%
remaining activity at 1 pM ([3]; 1 h, Grapiprant log([M]) -12.00, EP4-V72A, read-out: % cAMP activity (normalized to WT)): 39%
Grapiprant cAMP activity (∆pIC50 from EP4 WT), Mean ([3]; V72A, Mean): -0.652
Grapiprant cAMP activity (∆pIC50 from EP4 WT) ([3]; V72A, single experiments 1st-3rd): -0.771 and -0.507 and -0.679
ΔpIC50 [3]: -0.65 ± 0.08
ΔpIC50 ([3]; listed as grapiprant): reduced the potency
IC50 [4]: 4.27 nM
remaining activity at 0.1 µM ([4]; 1 h, Grapiprant log([M]) -7.00, EP4-WT, read-out: % cAMP activity (normalized to WT)): 4.26%
remaining activity at 0.01 µM ([4]; 1 h, Grapiprant log([M]) -8.00, EP4-WT, read-out: % cAMP activity (normalized to WT)): 24.2%
remaining activity at 0.001 µM ([4]; 1 h, Grapiprant log([M]) -9.00, EP4-WT, read-out: % cAMP activity (normalized to WT)): 84.9%
remaining activity at 0.0001 µM ([4]; 1 h, Grapiprant log([M]) -10.00, EP4-WT, read-out: % cAMP activity (normalized to WT)): 92.5%
remaining activity at 10 pM ([4]; 1 h, Grapiprant log([M]) -11.00, EP4-WT, read-out: % cAMP activity (normalized to WT)): 101%
remaining activity at 1 pM ([4]; 1 h, Grapiprant log([M]) -12.00, EP4-WT, read-out: % cAMP activity (normalized to WT)): 101%
Grapiprant cAMP activity (∆pIC50 from EP4 WT) ([4]; WT, single experiments 1st-3rd): 0.061 and -0.077 and -0.012
remaining activity at 10 µM ([5]; read-out: % cAMP activity on EP2 (normalized to PF-04418948), ligand log([M]) -5): 90.7%
remaining activity at 1 µM ([5]; read-out: % cAMP activity on EP2 (normalized to PF-04418948), ligand log([M]) -6): 105%
remaining activity at 0.1 µM ([5]; read-out: % cAMP activity on EP2 (normalized to PF-04418948), ligand log([M]) -7): 107%
remaining activity at 0.01 µM ([5]; read-out: % cAMP activity on EP2 (normalized to PF-04418948), ligand log([M]) -8): 113%
remaining activity at 0.001 µM ([5]; read-out: % cAMP activity on EP2 (normalized to PF-04418948), ligand log([M]) -9): 115%
remaining activity at 0.0001 µM ([5]; read-out: % cAMP activity on EP2 (normalized to PF-04418948), ligand log([M]) -10): 114%
remaining activity at 10 pM ([5]; read-out: % cAMP activity on EP2 (normalized to PF-04418948), ligand log([M]) -11): 120%
remaining activity at 1 pM ([5]; read-out: % cAMP activity on EP2 (normalized to PF-04418948), ligand log([M]) -12): 107%
Structure (SMILES): CCc1nc2c(C)nc(C)cc2n1-c1ccc(CCNC(=O)NS(=O)(=O)c2ccc(C)cc2)cc1 [Grapiprant]
antagonism profile EP4 versus EP2 (in words) ([1]; cAMP accumulation assay upon PGE2 stimulation, Appendix Fig. S1A): selective antagonists of EP2 and EP4, respectively; also recorded: strong selectivity
